Where “and” joins values, the source holds several entries; their conditions need not be identical. Equal values may be shown once.
Target: Muscarinic acetylcholine receptor M3 (Rattus norvegicus, UniProt P08483)
Sequence (P08483 whole entry): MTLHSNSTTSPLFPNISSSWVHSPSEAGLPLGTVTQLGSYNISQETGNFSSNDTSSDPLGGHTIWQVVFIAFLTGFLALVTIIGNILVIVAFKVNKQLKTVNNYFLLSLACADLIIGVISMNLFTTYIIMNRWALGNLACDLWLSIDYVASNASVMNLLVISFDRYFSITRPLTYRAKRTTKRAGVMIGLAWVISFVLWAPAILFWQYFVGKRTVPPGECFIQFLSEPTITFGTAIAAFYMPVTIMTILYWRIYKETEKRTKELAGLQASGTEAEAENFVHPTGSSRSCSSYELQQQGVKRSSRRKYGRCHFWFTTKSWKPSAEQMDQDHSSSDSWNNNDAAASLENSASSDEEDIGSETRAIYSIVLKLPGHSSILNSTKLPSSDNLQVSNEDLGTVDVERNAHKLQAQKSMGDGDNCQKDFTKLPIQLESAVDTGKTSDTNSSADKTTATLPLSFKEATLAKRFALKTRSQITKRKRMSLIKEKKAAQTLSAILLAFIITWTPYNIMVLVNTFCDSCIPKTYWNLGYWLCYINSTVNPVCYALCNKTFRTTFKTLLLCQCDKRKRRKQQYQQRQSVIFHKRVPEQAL

| Structure (SMILES) | Ki |
| --- | --- |
| COc1ccccc1CNCCCCCCNCCCCCCCCNCCCCCCNCc1ccccc1OC [METHOCTRAMINE] | 1400 nM and 1700 nM |
| CN(CCCCCCCCN(C)CCCCCCN(CC(=O)N1c2ccccc2C(=O)Nc2cccnc21)CC(=O)N1c2ccccc2C(=O)Nc2cccnc21)CCCCCCNCC(=O)N1c2ccccc2C(=O)Nc2cccnc21 [NSC_132947] | 220 nM and 180 nM |

From BindingDB's records for PubMed 11303063 (Creighton University, 2001)
